In US12629410B2, “Multi-antigenic peptide mimics of gonococcal lipo-oligosaccharide (LOS) epitopes” (priority 2019, dated 2026):
Values joined by “and” are separate entries in the source; they are usually repeats but may differ in a detail not shown here. Equal entries are not always repeated. Where two headings read alike, the source gives them in different places. Bridges are numbered along the chain shown (N, C = ends).

Tests used:
N. gonorrhoeae MS11 = assay: Serum bactericidal assay, immune mouse sera plus human complement; type: cell-based; conditions: for killing of MS11, all 13 immune sera: 50 μg/dose schedule
Protocol: Because earlier it was observed that sera from naïve and mice given adjuvant alone manifest bactericidal activity mediated by IgM, mouse IgM was depleted from all sera collected as part of immunization studies. Sera from mice diluted 1:1 in PBS was mixed with anti-mouse IgM agarose (Sigma; binding capacity ≥0.4 mg/ml) (1 volume of packed agarose to 1 volume of serum diluted 1:1) in a 2.0 ml microspin filter column (Costar) with a pore size of 0.22 μM) for 15 min at 22° C. Filter-sterilized IgM depleted sera were collected by centrifugation of the mixture at 1000 g for 2 min and heat-inactivated (56° C. for 30 min) to eliminate intrinsic complement activity in mouse serum prior to use in serum bactericidal assays where human complement was substituted.
Serum bactericidal assays were performed. Bacteria that had been harvested from an overnight culture on chocolate agar plates were repassaged onto fresh chocolate agar and allowed to grow for 6 h at 37° C. in an atmosphere containing 5% CO2. Bacteria were then suspended in HBSS containing 1 mM MgCl2 and 0.15 mM CaCl2) (HBSS++) for use in serum bactericidal assays. Briefly, about 2000 colony forming units (CFUs) of N. gonorrhoeae FA090 were incubated with serial dilutions of immune mouse sera (heat-inactivated and IgM-depleted) in the presence or absence of 20% normal human serum (NHS) as a source of human complement. Serum bactericidal assays with strain MS11 were performed with IgG and IgM depleted NHS (Human complement; Pel-Freez) because this strain is susceptible to killing by NHS. Final volumes of bactericidal reaction mixtures were 150 μl. Aliquots of 25-μl reaction mixtures were plated onto chocolate agar in duplicate at the beginning of the assay (to) and again after incubation at 37° C. for 30 min (t30). Survival was calculated as the number of viable colonies at t30 relative to t0.

[1] = test system: LOS purified from N. gonorrhoeae strain 15253; type: in vivo; conditions: for mean anti-LOS IgG level: n=13
mAb 2C7 = assay: Inhibition ELISA: inhibition of mAb 2C7 binding to immobilized gonococcal LOS
Source text: FIGS. 1A-1B show the structure and characterization of one of the peptide mimics described herein (also referred to as TMCP2). […] The 2C7 mimitope is indicated in shown as the sequence “H2C-CO-GPIPVLDENGLFAPGPC” (SEQ ID NO: 1) Cyclization is maintained through a thioether bond. The reverse peptide mimic core is represented the schematic of the peptide mimic as “Ac-β-Ala-Glu[Glu-OH]2.” The reverse peptide mimic core links to each cyclic peptide through a lysine (K) residue.
In order to compare antigenicity of peptide mimic Core Peptide 2 (monomeric cyclic CP2) and composite TMCP2 compounds with LOS that expresses the 2C7 epitope, inhibition ELISA was performed using mAb 2C7 reacted with the individual compounds to assess inhibition of binding (residual binding) of mAb to LOS by each compound. Microtiter wells were coated with LOS (80 μg/ml in PBS) purified from strain FA1090. Wells were washed and blocked with PBS-0.05% Tween 20. mAb 2C7 (0.04 μg/ml) either alone or containing monomeric cyclic peptide CP2 (1.07 to 1070 μM) or composite TMCP2 (concentrations ranging from […]) was dispended into LOS coated wells. Residual binding of 2C7 mAb was measured with anti-mouse IgG conjugated to alkaline phosphatase. Bound IgG was quantitated using a mouse IgG standard curve and percent inhibition determined compared to reaction mixtures that […].
Attempts to measure mAb 2C7 (7) binding directly to immobilized peptide mimic Core Peptide 2 (abbreviated CP2 in FIG. 1A) and composite TMCP2 by ELISA were not successful. The possibility of poor capture of the peptides by the microtiter wells was considered and therefore used an ELISA to measure inhibition of binding (residual binding) of mAb 2C7 to immobilized gonococcal LOS that had been reacted with increasing concentrations of the peptides (FIG. 1B).

[2] = test system: N. gonorrhoeae strain FA1090; assay: Mouse vaginal colonization model (protection experiment); type: in vivo; conditions: BALB/c n=14/group; TMCP2 50 μg + GLA-SE, 3 doses 2 weeks apart
Protocol: Use of animals in this study was performed in strict accordance with the recommendations in the Guide for the Care and Use of Laboratory Animals of the National Institutes of Health. The protocol was approved by the Institutional Animal Care and Use Committee (IACUC) at the University of Massachusetts Medical School. The BALB/c mouse model of vaginal colonization described by Jerse was used (25). Two weeks after the last immunization, mice in the diestrus phase of the estrous cycle were started on treatment (that day) with 0.1 mg PREMARIN® (Pfizer; a mixture of sodium estrone sulfate and sodium equilin sulfate also containing sodium sulfate conjugates of 17α-dihydroequilin, 17α-estradiol and 17β-dihydroequilin) in 200 μl of water, given subcutaneously on each of three days; −2, 0 and +2 days (before, the day of and after gonococcal inoculation) to prolong the estrus phase of the reproductive cycle and promote susceptibility to N. gonorrhoeae infection. […]
Experiments that compared clearance of N. gonorrhoeae in independent groups of mice estimated and tested three characteristics of the data (13): 1) time to clearance; 2) longitudinal trends in mean log10 CFU; 3) and the cumulative CFU as area under the curve (AUC). […] A quadratic or cubic function in time was determined to provide the best fit; random slopes were linear in time. […]

[3] = TMCP2 50 μg + GLA-SE, 3 doses 2 weeks apart, 11 mice

## [(CH2-CO-GPIPVLDENGLFAPGPC)-K-OH]4 ({CH2CO}-GPIPVLDENGLFAPGPCK-OH; thioether N-17; also: tetrameric MAP) [TMCP2]
N. gonorrhoeae MS11; immune serum 3.3%
  killing of MS11, all 13 immune sera: > 60%
N. gonorrhoeae MS11; immune serum 6.7%
  killing of MS11, all 13 immune sera: > 98%
N. gonorrhoeae MS11; 13 sera per group after 3rd dose, 16.7% (1/6 dilution)
  complement-dependent killing of MS11, all sera in each group: > 50%
N. gonorrhoeae MS11; Table 6, TMCP2 50 μg/dose + GLA-SE, immune serum 6.7% (1/15), 6.7% IgG/IgM-depleted NHS (Pel-Freez)
  Survival in intact immune serum: 0.00% and 1.52% and 0.47% and 0.93%
[1]; 5 mice, TMCP2 50 μg/dose + GLA-SE at 0, 2, 4 weeks, 2 weeks after third dose
  anti-LOS IgG in vaginal swabs: detected
[1]; BALB/c, n=13 per group, TMCP2 50, 100 or 200 μg/dose + GLA-SE, 3 weeks apart
  anti-LOS IgG levels in intact immune sera, all mice: exceeded 2 μg/ml
[1]; BALB/c, TMCP2 50 μg dose + GLA-SE, 3 doses
  anti-LOS IgG response in 3 of 5 mice: exceeded 10 μg/ml
[1]; BALB/c, TMCP2 50, 100 or 200 μg + GLA-SE, 3 doses 3 weeks apart, two weeks after final boosting
  anti-LOS IgG response, every mouse: exceeded 2 μg/ml
[1]; [3]
  mean anti-LOS level, post-dose 3 immune sera: 2.31 µg/mL
  range of anti-LOS level, post-dose 3 immune sera: 1.33 to 3.59 µg/mL
[1]; TMCP2 50 μg/dose + GLA-SE, 3 doses 3 weeks apart
  mean anti-LOS IgG level: 4.98 µg/mL
[1]; TMCP2 100 μg/dose + GLA-SE, 3 doses 3 weeks apart
  mean anti-LOS IgG level: 4.06 µg/mL
[1]; TMCP2 200 μg/dose + GLA-SE, 3 doses 3 weeks apart
  mean anti-LOS IgG level: 3.8 µg/mL
[1]; pooled post-dose 3 sera, IgM binding to 15253 LOS vs 15253 ΔlgtG LOS
  IgM response to the 2C7 epitope: no apparent IgM response
[1]; tetrapeptides 50 μg/dose plus Sigma MPL adjuvant, BALB/c, FIG. 10
  anti-LOS titers in immunization experiments: higher anti-LOS titers than TMCP4
mAb 2C7
  fold lower molar concentration of TMCP2 (compared to CP2) required to achieve 50% inhibition: ~4 fold
mAb 2C7; mAb 2C7 0.04 μg/ml, LOS-coated wells, read-out: concentration giving 50% inhibition of mAb 2C7 binding to immobilized 15253 LOS
  IC50: 25 µM
[2]
  gonococcal colonization, biweekly schedule: effectively attenuated gonococcal colonization
